From US9932637B2, “Genetic polymorphisms associated with cardiovascular disorders and drug response, methods of detection and uses thereof” (CELERA CORPORATION, priority 2003, dated 2018)
Several values for one entry are separate records, joined by “and”; a condition that tells them apart may be missing. Equal values may be shown once.

Test system: Scottish men with hypercholesterolemia (WOSCOPS)
Test: WOSCOPS nested case-control: coronary events under pravastatin vs placebo by genotype (Tables 11, 13, 15)
Format: in vivo, human
Settings: for Pravastatin Patients (%) / Pravastatin Patients n/total: WM
Description: Additionally, genetic markers identified as associated with acute coronary events or response to statin treatment for the prevention of coronary events in the CARE samples were also genotyped in a second sample set, the West of Scotland Coronary Prevention Study (WOSCOPS) sample set. […] Participants in the WOSCOPS study were 45-64 years of age and followed for an average of 4.9 years for coronary events. […] Controls were 1160 age and smoking status-matched unaffected patients. All individuals included in the study had signed a written informed consent form and the study protocol was approved by IRB s. DNA was extracted and genotyped as described above.
The data presented in Table 8 based on an association of genotypes with pravastatin efficacy of the CARE samples were further analyzed and presented in Table 13. The further analysis was performed to align the data obtained from the analysis of the CARE samples, which was a prospective study, to the analysis of the WOSCOP samples, which was a case/control study. Table 13 also presents an analysis of the association of genotypes with pravastatin efficacy in the WOSCOPs samples. Relative to the analysis performed on the data presented in Table 8, there are two significant differences to determine if the SNP influenced pravastatin efficacy. Data obtained from the CARE samples were separated by study design into two groups, those in the prospective study design group and those in the case/control study design group. The original care study contained 16 protocol defined cardiovascular disease defined endpoints and 150 other phenotypes. […] The control groups used to compare the data were also divided into two groups, the “all possible” control group and the “cleaner” control group. […] Because the participants in the WOSCOPs trial were all white males, only data obtained from white males in the CARE study were analysed. […] The data from the case/control cohorts were analysed using conditional logistic regression (as opposed to logistic regression used for the original anaylsis).
The anaylsis was refined as described for both Tables 13 and 14.

[1] = CAPN2 hCV781558, WOSCOPS (W) Case/Control, F&NF MI, listed as Pravastatin
[2] = CAPN2 hCV781558, WOSCOPS, Case/Control, F MI/SD/NF MI, listed as Pravastatin
[3] = CCL11 hCV7449808, WOSCOPS (W) Case/Control, F&NF MI
[4] = CCL11 hCV7449808, WOSCOPS, Case/Control, F MI/SD/NF MI
[5] = COL6A2 hCV2811372, WOSCOPS, Case/Control, F MI/SD/NF MI
[6] = COL6A2 hCV2811372, WOSCOPS, Case/Control, F MI/SD/NF MI, listed as Pravastatin
[7] = DDEF1 hCV7686234, WOSCOPS (W) Case/Control, F&NF MI
[8] = FGB hCV7429784, WOSCOPS, Case/Control, F MI/SD/NF MI
[9] = GAPD hCV8921288, WOSCOPS (W) Case/Control, F&NF MI
[10] = GAPD hCV8921288, WOSCOPS, Case/Control, F MI/SD/NF MI
[11] = HRC hCV11506744, 0 Rare Alleles, WOSCOPS Case/Control, F&NF MI, All Possible controls
[12] = HRC hCV11506744, 0 Rare Alleles, WOSCOPS Case/Control, F&NF MI, Cleaner controls
[13] = HRC hCV11506744, 1 Rare Allele, WOSCOPS Case/Control, F&NF MI, All Possible controls
[14] = HRC hCV11506744, 1 Rare Allele, WOSCOPS Case/Control, F&NF MI, Cleaner controls
[15] = HRC hCV11506744, WOSCOPS Case/Control, F&NF MI
[16] = HRC hCV11506744, WOSCOPS, Case/Control, F MI/SD/NF MI, listed as Pravastatin
[17] = IL1A hCV9546471, 0 Rare Alleles, WOSCOPS Case/Control, F&NF MI, All Possible controls
[18] = IL1A hCV9546471, 1 Rare Allele, WOSCOPS Case/Control, F&NF MI, All Possible controls
[19] = IL1A hCV9546471, WOSCOPS Case/Control, F&NF MI
[20] = IL1A hCV9546471, WOSCOPS, Case/Control, F MI/SD/NF MI
[21] = LRP3 hCV25594815, 0 Rare Alleles, WOSCOPS Case/Control, F&NF MI, All Possible controls
[22] = LRP3 hCV25594815, 0 Rare Alleles, WOSCOPS Case/Control, F&NF MI, Cleaner controls
[23] = LRP3 hCV25594815, 1 Rare Allele, WOSCOPS Case/Control, F&NF MI, All Possible controls
[24] = LRP3 hCV25594815, 1 Rare Allele, WOSCOPS Case/Control, F&NF MI, Cleaner controls
[25] = LRP3 hCV25594815, WOSCOPS Case/Control, F&NF MI
[26] = LRP3 hCV25594815, WOSCOPS, Case/Control, F MI/SD/NF MI
[27] = PON1 hCV2548962, 0 rare alleles, WOSCOPS Case/Control, Fatal & Nonfatal MI, Cleaner controls, White Males
[28] = PON1 hCV2548962, 1 rare allele, WOSCOPS Case/Control, Fatal & Nonfatal MI, Cleaner controls, White Males
[29] = PON1 hCV2548962, 2 rare alleles, WOSCOPS Case/Control, Fatal & Nonfatal MI, Cleaner controls, White Males
[30] = WOSCOPS, FCAR genotype GG, placebo group as reference, conditional logistic regression

CC[C@H](C)C(=O)O[C@H]1C[C@H](O)C=C2C=C[C@H](C)[C@H](CC[C@@H](O)C[C@@H](O)CC(=O)O)[C@H]21 [pravastatin]
Pravastatin vs placebo odds ratio, 1 rare allele (CAPN2 hCV781558, WOSCOPS (W) Case/Control, F&NF MI): 1.02
2 Rare Alleles n/total, Pravastatin Patients [1]: 10/41 and 10/39
Pravastatin vs placebo odds ratio, 0 rare alleles [1]: 0.52 and 0.51
Pravastatin vs placebo odds ratio, 1 rare allele [1]: 1.07
Pravastatin vs placebo odds ratio, 2 rare alleles [1]: 0.46 and 0.38
Pravastatin vs placebo odds ratio, 1 rare allele (CAPN2 hCV781558, WOSCOPS, Case/Control, F MI/SD/NF MI): 1.08
Pravastatin vs placebo odds ratio, 0 rare alleles [2]: 0.46 and 0.45
Pravastatin vs placebo odds ratio, 1 rare allele [2]: 1.03
Pravastatin vs placebo odds ratio, 2 rare alleles [2]: 0.56 and 0.43
2 Rare Alleles n/total, Pravastatin Patients [3]: 10/24 and 10/22
Pravastatin vs placebo odds ratio, 0 rare alleles [3]: 0.67 and 0.65
Pravastatin vs placebo odds ratio, 1 rare allele [3]: 0.57 and 0.53
Pravastatin vs placebo odds ratio, 2 rare alleles [3]: 6.96 and 7.20
Pravastatin vs placebo odds ratio, 0 rare alleles [4]: 0.63 and 0.62
Pravastatin vs placebo odds ratio, 1 rare allele [4]: 0.50 and 0.46
Pravastatin vs placebo odds ratio, 2 rare alleles [4]: 8.57 and 9.95
Pravastatin vs placebo odds ratio, 0 rare alleles [5]: 0.39
Pravastatin vs placebo odds ratio, 2 rare alleles [5]: 1.04
Pravastatin vs placebo odds ratio, 1 rare allele [6]: 0.62 and 0.59
Pravastatin vs placebo odds ratio, 2 rare alleles [6]: 1.09
2 Rare Alleles (%), Pravastatin Patients [7]: (25.1%)
2 Rare Alleles n/total, Pravastatin Patients [7]: 42/167
Pravastatin vs placebo odds ratio, 0 rare alleles [7]: 0.45
Pravastatin vs placebo odds ratio, 1 rare allele [7]: 0.68
Pravastatin vs placebo odds ratio, 2 rare alleles [7]: 1.06
2 rare alleles n/total (%), pravastatin patients [8]: (50.0%)
Pravastatin vs placebo odds ratio, 0 rare alleles [8]: 0.63
Pravastatin vs placebo odds ratio, 1 rare allele [8]: 0.52
Pravastatin vs placebo odds ratio, 2 rare alleles [8]: 3.14
2 Rare Alleles n/total, Pravastatin Patients [9]: 10/26 and 10/23
Pravastatin vs placebo odds ratio, 0 rare alleles [9]: 0.54 and 0.50
Pravastatin vs placebo odds ratio, 1 rare allele [9]: 0.99 and 0.98
Pravastatin vs placebo odds ratio, 2 rare alleles [9]: 1.51 and 1.90
Pravastatin vs placebo odds ratio, 0 rare alleles [10]: 0.50 and 0.46
Pravastatin vs placebo odds ratio, 1 rare allele [10]: 0.88 and 0.89
Pravastatin vs placebo odds ratio, 2 rare alleles [10]: 1.56 and 1.92
Pravastatin Patients (%) [11]: (23.3%)
Pravastatin Patients n/total [11]: 59/253
Pravastatin Patients (%) [12]: (25.2%)
Pravastatin Patients n/total [12]: 59/234
Pravastatin Patients (%) [13]: (18.0%)
Pravastatin Patients n/total [13]: 65/361
Pravastatin Patients (%) [14]: (19.2%)
Pravastatin Patients n/total [14]: 65/338
2 Rare Alleles (%), Pravastatin Patients [15]: (27.6%)
2 Rare Alleles n/total, Pravastatin Patients [15]: 35/127 and 35/118
Pravastatin vs placebo odds ratio, 0 rare alleles [15]: 0.84 and 0.80
Pravastatin vs placebo odds ratio, 1 rare allele [15]: 0.49 and 0.46
Pravastatin vs placebo odds ratio, 2 rare alleles [15]: 1.08
Pravastatin vs placebo odds ratio, 2 rare alleles (HRC hCV11506744, WOSCOPS, Case/Control, F MI/SD/NF MI): 1.04
Pravastatin vs placebo odds ratio, 0 rare alleles [16]: 0.85 and 0.80
Pravastatin vs placebo odds ratio, 1 rare allele [16]: 0.41 and 0.39
Pravastatin vs placebo odds ratio, 2 rare alleles [16]: 1.05
Pravastatin Patients (%) [17]: (20.8%)
Pravastatin Patients n/total [17]: 77/370
Pravastatin Patients (%) [18]: (24.2%)
Pravastatin Patients n/total [18]: 74/306
2 Rare Alleles (%), Pravastatin Patients [19]: (18.3%)
2 Rare Alleles n/total, Pravastatin Patients [19]: 11/60
Pravastatin vs placebo odds ratio, 0 rare alleles [19]: 0.52
Pravastatin vs placebo odds ratio, 1 rare allele [19]: 0.95
Pravastatin vs placebo odds ratio, 2 rare alleles [19]: 0.95
Pravastatin vs placebo odds ratio, 0 rare alleles [20]: 0.46 and 0.45
Pravastatin vs placebo odds ratio, 1 rare allele [20]: 0.91 and 0.85
Pravastatin vs placebo odds ratio, 2 rare alleles [20]: 0.94 and 0.98
Pravastatin Patients (%) [21]: (24.1%)
Pravastatin Patients n/total [21]: 133/552
Pravastatin Patients (%) [22]: (26.1%)
Pravastatin Patients n/total [22]: 133/509
Pravastatin Patients (%) [23]: (14.5%)
Pravastatin Patients n/total [23]: 25/172
Pravastatin Patients (%) [24]: (15.2%)
Pravastatin Patients n/total [24]: 25/164
2 Rare Alleles (%), Pravastatin Patients [25]: (27.3%)
2 Rare Alleles n/total, Pravastatin Patients [25]: 3/11
Pravastatin vs placebo odds ratio, 0 rare alleles [25]: 0.82 and 0.80
Pravastatin vs placebo odds ratio, 1 rare allele [25]: 0.33 and 0.31
Pravastatin vs placebo odds ratio, 2 rare alleles [25]: 1.46 and 1.21
2 rare alleles n/total (%), pravastatin patients [26]: (27.3%)
Pravastatin vs placebo odds ratio, 0 rare alleles [26]: 0.76 and 0.75
Pravastatin vs placebo odds ratio, 1 rare allele [26]: 0.29 and 0.26
Pravastatin vs placebo odds ratio, 2 rare alleles [26]: 2.40 and 1.80
Pravastatin vs. Placebo Odds Ratio (95% CI), Patients with 0 Rare Alleles [27]: 0.84 (0.60 to 1.16)
n/total (%) cases, Pravastatin Patients, 0 Rare Alleles [27]: 88/344 (25.6%)
Pravastatin vs. Placebo Odds Ratio (95% CI), Patients with 1 Rare Allele [28]: 0.58 (0.40 to 0.84)
n/total (%) cases, Pravastatin Patients, 1 Rare Allele [28]: 65/282 (23.1%)
Pravastatin vs. Placebo Odds Ratio (95% CI), Patients with 2 Rare Alleles [29]: 0.34 (0.14 to 0.82)
n/total (%) cases, Pravastatin Patients, 2 Rare Alleles [29]: 9/53 (17.0%)
RR or OR of adverse coronary event, pravastatin vs placebo (WOSCOPS, CD6 hCV2553030, homozygous for the minor allele): 0.23
OR (odds ratio) of MI associated with Pravastatin (WOSCOPS, CD6 hCV2553030 genotype Het (TC)): 0.71
OR (odds ratio) of MI associated with Pravastatin (WOSCOPS, CD6 hCV2553030 genotype Major hom (CC)): 0.66
OR (odds ratio) of MI associated with Pravastatin (WOSCOPS, CD6 hCV2553030 genotype Minor hom (TT)): 0.23
OR (odds ratio) of MI associated with Pravastatin (WOSCOPS, CD6 hCV2553030 recessive (TT)): 0.23
OR (odds ratio) of MI associated with Pravastatin (WOSCOPS; CD6 hCV2553030 recessive TC + CC)ref): 0.68
OR of MI associated with Pravastatin, first of two OR sets printed [30]: 0.66
OR of MI associated with Pravastatin, second of two OR sets printed [30]: 0.65
